Experimental findings from patent US12187713B2, “Immunomodulators, compositions and methods thereof” (Betta Pharmaceuticals Co., Ltd, priority 2019, dated 2025) are described below.

PD-1/PD-L1, sequence (Q9NZQ7 19-238): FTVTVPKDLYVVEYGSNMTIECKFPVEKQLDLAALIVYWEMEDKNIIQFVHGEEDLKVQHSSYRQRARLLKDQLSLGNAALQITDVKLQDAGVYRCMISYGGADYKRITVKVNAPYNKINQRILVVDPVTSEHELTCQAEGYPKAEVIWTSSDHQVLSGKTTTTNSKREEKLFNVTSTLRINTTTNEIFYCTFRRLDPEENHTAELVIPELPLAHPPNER

One assay deals with PD-1/PD-L1 (Homo sapiens (Human), UniProt Q9NZQ7). In words: PD-1/PD-L1 Binding Assay (Alphascreen). To be noted: numeric values. The method in brief:
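PD-1/PD-L1 binding detected by anti-6×His acceptor and streptavidin donor beads after 120 min in the dark at 25 °C. Beforehand, the two proteins were incubated 15 min at 25 °C with inhibitor at 0.015–300 nM (1% DMSO). IC50 comes from a log concentration–response curve.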
For orientation: Bead proximity is the source of the signal in Alpha formats.
`Cc1c(-c2nc3cc(CN4CC(C)(O)C4)c(OC(F)F)cc3o2)cccc1-c1cccc(-c2nc3cc(CN4CCC[C@H]4C(=O)O)c(OC(F)F)cc3o2)c1C` [Example 44, ((6-(difluoromethoxy)-2-(3′-(6-(difluoromethoxy)-5-((3-hydroxy-3-methylazetidin-1-yl)methyl)benzo[d]oxazol-2-yl)-2,2′-dimethyl-[1,1′-biphenyl]-3-yl)benzo[d]oxazol-5-yl)methyl)-L-proline]: the half-maximal inhibitory concentration (IC50) (as a rule, the concentration that inhibits the measured activity by half) was 1.1 nM.

As for `Cc1c(-c2nc3cc(CN4CCC[C@H]4C(=O)O)c(OC(F)F)cc3o2)cccc1-c1cccc(-c2nc3cc(CN4CC(C)(CO)C4)cc(C#N)c3o2)c1C` [Example 129, ((2-(3′-(7-cyano-5-((3-(hydroxymethyl)-3-methylazetidin-1-yl)methyl)benzo[d]oxazol-2-yl)-2,2′-dimethyl-[1,1′-biphenyl]-3-yl)-6-(difluoromethoxy)benzo[d]oxazol-5-yl)methyl)-L-proline], the IC50 was determined as 1.7 nM.

`Cc1c(Nc2nccc3cc(CN4CCC(F)C4)cnc23)cccc1-c1cccc(-c2nc3cc(CN4CCC[C@H]4C(=O)O)c(OC(F)F)cc3o2)c1C` (stereo partly drawn) [Example 174, ((6-(difluoromethoxy)-2-(3′-((3-((3-fluoropyrrolidin-1-yl)methyl)-1,7-naphthyridin-8-yl)amino)-2,2′-dimethyl-[1,1′-biphenyl]-3-yl)benzo[d]oxazol-5-yl)methyl)-L-proline] yielded a half-maximal inhibitory concentration (IC50) of 21 nM.

For the compound `Cc1cc(-c2cccc(-c3cccc(-c4nc5cc(CN6CCC[C@H]6C(=O)O)c(OC(F)F)cc5o4)c3C)c2C)ccc1CN1CCCC1` [Example 230, ((6-(difluoromethoxy)-2-(2,2′,3″-trimethyl-4″- (pyrrolidin-1-ylmethyl)-[1,1′:3′,1″-terphenyl]-3-yl)benzo[d]oxazol-5-yl)methyl)-L-proline], the 50% inhibitory concentration (IC50) was 1.5 nM.

Regarding `Cc1c(-c2ccc(CN3CCC(C)C3)c(F)c2)cccc1-c1cccc(-c2nc3cc(CN4CCC[C@H]4C(=O)O)c(OC(F)F)cc3o2)c1C` (stereo partly drawn) [Example 238, ((6-(difluoromethoxy)-2-(3″-fluoro-2,2′-dimethyl-4″-((3-methylpyrrolidin-1-yl)methyl)-[1,1′:3′,1″-terphenyl]-3-yl)benzo[d]oxazol-5-yl)methyl)-L-proline], the 50% inhibitory concentration (IC50) is 2.3 nM.

For the compound `Cc1c(-c2nc3cc(CNCCS(C)(=O)=O)c(OC(F)F)cc3o2)cccc1-c1cccc(-c2nc3cc(CN4CCC[C@H]4C(=O)O)c(OC(F)F)cc3o2)c1C` [Example 32, ((6-(difluoromethoxy)-2-(3′-(6-(difluoromethoxy)-5-(((2-(methylsulfonyl)ethyl)amino)methyl)benzo[d]oxazol-2-yl)-2,2′-dimethyl-[1,1′-biphenyl]-3-yl)benzo[d]oxazol-5-yl)methyl)-L-proline], the 50% inhibitory concentration (IC50) turned out to be 3.8 nM.

The assay is the same for the next values; noted with them: range symbols.
In turn, `Cc1c(-c2nc3cc(CN4CCC[C@H]4C(=O)O)c(OC(F)F)cc3o2)cccc1-c1cccc(-c2nc3cc(CN4CCCC4)cnc3o2)c1C` [Example 112, ((6-(difluoromethoxy)-2-(2,2′-dimethyl-3′-(6-(pyrrolidin-1-ylmethyl)oxazolo[5,4-b]pyridin-2-yl)-[1,1′-biphenyl]-3-yl)benzo[d]oxazol-5-yl)methyl)-L-proline] came in with an IC50 of 0.1 to 5 nM.

In turn, `Cc1c(-c2nc3cc(CN4CCC[C@H]4C(=O)O)c(OC(F)F)cc3o2)cccc1-c1cccc(-c2nc3cc(CNCC4CCC(=O)N4)cc(C#N)c3o2)c1C` (stereo partly drawn) [Example 139, ((2-(3′-(7-cyano-5-((((5-oxopyrrolidin-2-yl)methyl)amino)methyl)benzo[d]oxazol-2-yl)-2,2′-dimethyl-[1,1′-biphenyl]-3-yl)-6-(difluoromethoxy)benzo[d]oxazol-5-yl)methyl)-L-proline] showed a half-inhibitory concentration (IC50) of 0.1 to 5 nM.

Compound `Cc1c(-c2nc3cc(CN4CCC[C@H]4C(=O)O)c(OC(F)F)cc3o2)cccc1-c1cccc(-c2nc3cc(CN4CC(N(C)C)C4)cc(C#N)c3o2)c1C` [Example 134, ((2-(3′-(7-cyano-5-((3-(dimethylamino)azetidin-1-yl)methyl)benzo[d]oxazol-2-yl)-2,2′-dimethyl-[1,1′-biphenyl]-3-yl)-6-(difluoromethoxy)benzo[d]oxazol-5-yl)methyl)-L-proline] came in with an IC50 of 0.1 to 5 nM.

The compound `Cc1c(-c2nc3cc(CN4CCC[C@H]4C(=O)O)c(OC(F)F)cc3o2)cccc1-c1cccc(-c2nc3cc(CN4CC(C)C(C)C4)cc(C(F)(F)F)c3o2)c1C` (stereo partly drawn) [Example 84, ((6-(difluoromethoxy)-2-(3′-(5-((3,4-dimethylpyrrolidin-1-yl)methyl)-7-(trifluoromethyl)benzo[d]oxazol-2-yl)-2,2′-dimethyl-[1,1′-biphenyl]-3-yl)benzo[d]oxazol-5-yl)methyl)-L-proline] returned a half-maximal inhibitory concentration (IC50) of 0.1 to 5 nM.

`Cc1c(-c2nc3cc(CN4CCC[C@H]4C(=O)O)c(OC(F)F)cc3o2)cccc1-c1cccc(-c2nc3c(F)c(F)c(CN4CCCC4)cc3n2CC(F)(F)F)c1C` [Example 300, ((2-(3′-(4,5-difluoro-6-(pyrrolidin-1-ylmethyl)-1-(2,2,2-trifluoroethyl)-1H-benzo[d]imidazol-2-yl)-2,2′-dimethyl-[1,1′-biphenyl]-3-yl)-6-(difluoromethoxy)benzo[d]oxazol-5-yl)methyl)-L-proline]: the IC50 was > 50 nM.

For `Cc1c(-c2nc3cc(CN4CCC[C@@H]4C(=O)O)c(OC(F)F)cc3o2)cccc1-c1cccc(-c2nc3ccc(CN4CC(C)(C)C4)cc3o2)c1Cl` [Example 111, ((2-(2′-chloro-3′-(6-((3,3-dimethylazetidin-1-yl)methyl)benzo[d]oxazol-2-yl)-2-methyl-[1,1′-biphenyl]-3-yl)-6-(difluoromethoxy)benzo[d]oxazol-5-yl)methyl)-D-proline], the concentration for half-maximal inhibition (IC50) lay in the range of 0.1 to 5 nM.

The compound `Cc1c(-c2ccc(CN3CCCC3)c(Cl)c2)cccc1-c1cccc(-c2nc3cc(CN4CCC[C@H]4C(=O)O)c(OC(F)F)cc3o2)c1C` [Example 219, ((2-(3″-chloro-2,2′-dimethyl-4″-(pyrrolidin-1-ylmethyl)-[1,1′:3′,1″-terphenyl]-3-yl)-6-(difluoromethoxy)benzo[d]oxazol-5-yl)methyl)proline] displayed an IC50 of 0.1 to 5 nM.

`Cc1c(-c2nc3cc(CN4CCC[C@H]4C(=O)O)c(OC(F)F)cc3o2)cccc1-c1cccc(-c2nc3cc(CNCC4CCC(=O)N4)cnc3o2)c1C` (stereo partly drawn) [Example 115, ((6-(difluoromethoxy)-2-(2,2′-dimethyl-3′-(6-((((5-oxopyrrolidin-2-yl)methyl)amino)methyl)oxazolo[5,4-b]pyridin-2-yl)-[1,1′-biphenyl]-3-yl)benzo[d]oxazol-5-yl)methyl)-L-proline] came in with an IC50 of 0.1 to 5 nM.

In the case of `COc1nc(OCc2cccc(-c3cccc(-c4nc5cc(CN6CCC[C@H]6C(=O)O)c(OC(F)F)cc5o4)c3C)c2C)nc(OC)c1CN1CC(C)(C)C1` [Example 213, ((6-(difluoromethoxy)-2-(3′-(((5-((3,3-dimethylazetidin-1-yl)methyl)-4,6-dimethoxypyrimidin-2-yl)oxy)methyl)-2,2′-dimethyl-[1,1′-biphenyl]-3-yl)benzo[d]oxazol-5-yl)methyl)-L-proline], the half-maximal inhibitory concentration (IC50) lay in the range of 5 to 50 nM.

Take `Cc1c(Nc2nccc3cc(CN4CCC(O)C4)cnc23)cccc1-c1cccc(-c2nc3cc(CN4CC[C@H](C(=O)O)C4)c(OC(F)F)cc3o2)c1C` (stereo partly drawn) [Example 180, (3S)-1-((6-(difluoromethoxy)-2-(3′-((3-((3-hydroxypyrrolidin-1-yl)methyl)-1,7-naphthyridin-8-yl)amino)-2,2′-dimethyl-[1,1′-biphenyl]-3-yl)benzo[d]oxazol-5-yl)methyl)pyrrolidine-3-carboxylic acid]: the 50% inhibitory concentration (IC50) is 0.1 to 5 nM.

Turning to `Cc1c(-c2nc3cc(CN4CCC[C@H]4C(=O)O)c(OC(F)F)cc3o2)cccc1-c1cccc(-c2nc3ccc(CN4CC(C)(C)C4)cc3o2)c1Cl` [Example 110, ((2-(2′-chloro-3′-(6-((3,3-dimethylazetidin-1-yl)methyl)benzo[d]oxazol-2-yl)-2-methyl-[1,1′-biphenyl]-3-yl)-6-(difluoromethoxy)benzo[d]oxazol-5-yl)methyl)-L-proline], the IC50 was in the range of 0.1 to 5 nM.

The compound `Cc1c(-c2nc3cc(CN4CCC[C@H]4C(=O)O)c(OC(F)F)cc3o2)cccc1-c1cccc(-c2nc3cc(CN4CC(CO)C4)cc(C#N)c3o2)c1C` [Example 137, ((2-(3′-(7-cyano-5-((3-(hydroxymethyl)azetidin-1-yl)methyl)benzo[d]oxazol-2-yl)-2,2′-dimethyl-[1,1′-biphenyl]-3-yl)-6-(difluoromethoxy)benzo[d]oxazol-5-yl)methyl)-L-proline] displayed an IC50 of 0.1 to 5 nM.

Turning to `Cc1cc(-c2cccc(-c3cccc(-c4nc5cc(CN6CCC[C@H]6C(=O)O)c(OC(F)F)cc5o4)c3C)c2C)ccc1CN1CCCC1` [Example 218, ((6-(difluoromethoxy)-2-(2,2′,3″-trimethyl-4″- (pyrrolidin-1-ylmethyl)-[1,1′:3′,1″-terphenyl]-3-yl)benzo[d]oxazol-5-yl)methyl)proline], the half-maximal inhibitory concentration (IC50) is 0.1 to 5 nM.

`Cc1c(-c2nc3cc(CN4CCC[C@H]4C(=O)O)c(OC(F)F)cc3o2)cccc1-c1cccc(-c2ccc(CN3CCCC3)cc2F)c1Br` [Example 221, ((2-(2′-bromo-2″-fluoro-2-methyl-4″- (pyrrolidin-1-ylmethyl)-[1,1′:3′,1″-terphenyl]-3-yl)-6-(difluoromethoxy)benzo[d]oxazol-5-yl)methyl)proline] registered an IC50 of 0.1 to 5 nM.

`CCNCc1cc2nc(-c3cccc(-c4cccc(-c5nc6cc(CN7CCC[C@H]7C(=O)O)c(OC(F)F)cc6o5)c4C)c3C)oc2cc1OCc1cncc(S(C)(=O)=O)c1` [Example 122, ((6-(difluoromethoxy)-2-(3′-(5-((ethylamino)methyl)-6-((5-(methylsulfonyl)pyridin-3-yl)methoxy)benzo[d]oxazol-2-yl)-2,2′-dimethyl-[1,1′-biphenyl]-3-yl)benzo[d]oxazol-5-yl)methyl)-L-proline] returned an IC50 of 0.1 to 5 nM.
